In patent US10583119B2, “Compounds, compositions and methods for making the same” (Signum Biosciences, Inc., priority 2008, dated 2020):
Entries after “also recorded” stand apart in the source; their conditions may differ.

Columns and labels:
[1] = biological target: T1, PP2A (Homo sapiens, UniProt P67775); assay: Phosphatase activity of PP2A using phosphorylase a as substrate; type: biochemical; settings: un-methylated PP2A, protein substrate phosphorylase a, absence of ME and MT
T1 construct: made in house
T1 sequence (P67775 whole entry): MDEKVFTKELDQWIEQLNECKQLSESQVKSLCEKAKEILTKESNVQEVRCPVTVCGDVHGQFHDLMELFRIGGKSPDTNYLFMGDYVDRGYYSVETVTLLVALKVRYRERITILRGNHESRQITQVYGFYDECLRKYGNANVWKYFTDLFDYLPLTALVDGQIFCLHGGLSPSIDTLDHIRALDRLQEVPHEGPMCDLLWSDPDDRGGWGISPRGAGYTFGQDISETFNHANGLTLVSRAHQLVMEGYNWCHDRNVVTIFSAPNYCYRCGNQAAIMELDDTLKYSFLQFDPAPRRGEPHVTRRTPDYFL
T1 sequence (P30153 whole entry partner): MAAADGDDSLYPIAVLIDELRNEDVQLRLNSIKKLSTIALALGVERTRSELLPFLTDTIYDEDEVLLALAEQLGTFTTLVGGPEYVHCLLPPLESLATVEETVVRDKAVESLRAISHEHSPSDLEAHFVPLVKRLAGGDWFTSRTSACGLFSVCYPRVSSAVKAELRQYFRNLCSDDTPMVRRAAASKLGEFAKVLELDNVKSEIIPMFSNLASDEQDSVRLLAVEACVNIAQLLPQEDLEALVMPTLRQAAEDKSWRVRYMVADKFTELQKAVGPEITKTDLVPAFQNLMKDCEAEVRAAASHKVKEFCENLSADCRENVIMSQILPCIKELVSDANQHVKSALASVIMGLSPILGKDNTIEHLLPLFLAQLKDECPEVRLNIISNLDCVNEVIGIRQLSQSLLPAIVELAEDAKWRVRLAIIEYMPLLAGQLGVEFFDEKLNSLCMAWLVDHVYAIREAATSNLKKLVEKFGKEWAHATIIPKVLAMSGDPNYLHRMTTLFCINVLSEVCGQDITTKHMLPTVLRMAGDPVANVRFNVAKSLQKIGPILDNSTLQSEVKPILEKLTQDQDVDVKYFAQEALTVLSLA
Method: After the reaction, proteins were precipitated by 50% (NH4)2SO4 (final concentration) twice, and collected by centrifugation. The pellet was re-dissolved and dialyzed in a buffer containing 50 mM Tris-HCl (pH6.9) and ImM DTT for 2×2 L at 4° C. overnight. Phosphorylase a (phospho-phosphorylase b) crystallized during the dialysis. The dialysate was centrifuged 14,000 r.p.m at 4° C. for 30 minutes, the supernatant was removed and purified ^32P-labelled phosphorylase a was re-dissolved in +50% glycerol, and stored at −20° C.
To measure PP2A's phosphatase activity, PP2A (5-20 nM) was incubated with phosphorylase a (5-10 μM) at 37° C. 10% TCA (final concentration) and was added to the reaction to precipitate proteins. Supernatant that contains free ^32P-phosphate group was added into scintillation counting solution (Ecoscint, National Diagnostics), and counted by scintillation counter (LS 6000SE, Beckman).

[2] = test system: Swiss-Webster (wild-type) mice; assay: Glucose metabolism (intraperitoneal glucose tolerance test, body weight) in wild-type mice; type: in vivo; settings: 0.1% in diet for 128 days
From the text: The glucose tolerance test (GTT) measures the body's ability to metabolize glucose. It is currently used to diagnose patients with prediabetes disposition and diabetes.
Twenty (20) Swiss-Webster (wild-type) mice were acclimated for 2 weeks. The mice were ear notched for identification and housed in individually and negatively ventilated polycarbonate cages with HEPA filtered air at a density of 6 mice per cage. Bed-o-cob corn cob bedding was used and cages were changed every two weeks. The animal room was lighted entirely with artificial fluorescent lighting, with a controlled 12 h light/dark cycle (7 am to 7 pm light). The normal temperature and relative humidity ranged in the animal rooms are 22±4° C. and 50±15%, respectively. The animal rooms were set to have 15 air exchanges per hour. Filtered tap water, acidified to a pH of 2.8 to 3.2. LabDiet D10001 was provided ad libitum, and leftover food was removed once per week.
Following acclimation, mice are assigned to groups according to diet. • 1. Control Diet (D10001) • 2. Compound I-63 ((D10001 with 0.1% 1-63)
The mice were maintained on the diet for 128 days. […] Mice were weighed and glucose dose calculated for […] body weight. […] Blood glucose levels were measured with the OneTouch UltraSmart electronic glucometer at time point O with tail vein blood. […] Blood glucose was measured at 15, 30, 45, 90 and 120 minutes after glucose injection.

[3] = test system: MPTP Mouse Model of Parkinson's Disease; assay: MPTP-induced neurotoxicity in MPTP mouse model of Parkinson's disease (striatal tyrosine hydroxylase ELISA); type: in vivo, C57BL/6J mice; settings: acute MPTP 10 mg/kg four times, striatum
From the text: MPTP (1-methyl-4-phenyl-1,2,3,6-tetrahydropyridine) is routinely used as a chemical agent that induces Parkinson's disease-like neurodegeneration in cellular and animal models. Both Parkinson's Disease and MPTP-induced neurotoxicity are associated with a number of different biomarkers including reduction of tyrosine hydroxylase levels and activity. Tyrosine hydroxylase is a key enzyme in the dopamine biosynthesis pathway as it is involved in the conversion of tyrosine to […]. Tyrosine hydroxylase activity is regulated by its phosphorylation status and PP2A is known to be involved in this regulation.
C57BL/6J mice, aged 2-3 months were fed ad libitum, either standard rodent chow (Control), or rodent chow formulated with 0.1 g Compound I-63, or 0.001 g Compound I-63 per 100 g chow (0.1% and 0.001% Compound I-63, respectively); water was changed weekly. Mice were housed at 23° C., on a 12 hour light and dark cycle, with 6 mice per cage. After 2 weeks, 8-12 mice each from the Control, 0.1% Compound 1-63 and 0.001% Compound I-63 groups were injected with either saline, or 10 mg/kg MPTP i.e., four times, every 2 hours, on the same day. Mice were then maintained on their respective feeds for another week, at which point they were sacrificed by cervical dislocation and brains dissected for biochemical analyses.
Striatal tyrosine hydroxylase (TH) content was measured by ELISA as follows. Ninety-six well microliter plates (Thermo Labsystems) were incubated overnight at 4° C. with monoclonal anti-TH antibody (1:500; Calbiochem) in 8 mM sodium phosphate, 2 mM potassium phosphate, and 0.14 M sodium chloride, pH 7.4 (PBS). Wells were washed four times with PBS and then blocked for 1 hour using 5% (w/v) Carnation (Nestle) nonfat dry milk in PBS. Striatal tissue samples were homogenized by sonication in PBS-0.5% Triton X-100 (PBST) with 0.25% (w/v) SDS. […] The reaction product was measured fluorometrically within the linear range of detection (excitation:emission ratio of 530:580 nm). […] Data were expressed as percent TH levels in MPTP-treated mice relative to saline-injected mice. […]

In the case of CCCCCCCCCCCCCCCCCCCC(=O)NCCc1c[nH]c2ccc(O)cc12 [Compound I-63, N-(2-(5-hydroxy-1H-indol-3-yl)ethyl)icosanamide], the IC50 [1] is reported as greater than 100 µM, the “glucose tolerance in intraperitoneal glucose tolerance test” value [2] is reported as “consistently lower glucose levels; also recorded: improved glucose tolerance” and the “incremental area under the curve of blood glucose levels in the glucose tolerance test compared to control diet” value [2] is reported as less than 10%. For the same compound, the “rescuing of the tyrosine hydroxylase defect” value ([3]; 0.001% diet) was “approximately 20%” and the “rescuing of the tyrosine hydroxylase defect” value ([3]; 0.1% diet) was “approximately 20%”.
